# From ChEMBL document CHEMBL5620376, “Design, synthesis and anti-NASH effect evaluation of novel GFT505 derivatives in vitro and in vivo” (Eur J Med Chem, 2023)
# The source made the active and inactive calls. No cut-off for these calls is given here.
# Legend:
# HepG2 [1] = assay: Cytotoxicity against human HepG2 cells assessed as inhibition of cell proliferation at 20 to 80 micromol/L incubated for 24 hrs by MTT assay; type: functional, cell-based; conditions: dose 20-80 µmol/L
# HepG2 [2] = assay: Anti-NASH activity in free fatty acid-induced nonalcoholic steatohepatitis model in human HepG2 cells assessed as reduction in intracellular lipid accumulation at 40 micromol/L incubated for 24 hrs by Oil Red O/ Hematoxylin staining based analysis; type: functional, cell-based; conditions: dose 40.0 µmol/L
# HepG2 [3] = assay: Anti-NASH activity in free fatty acid-induced nonalcoholic steatohepatitis model in human HepG2 cells assessed as reduction in intracellular triglyceride level measured per mg of protein at 40 micromol/L incubated for 24 hrs; type: functional, cell-based; conditions: dose 40.0 µmol/L
# HepG2 [4] = assay: Anti-NASH activity in free fatty acid-induced nonalcoholic steatohepatitis model in human HepG2 cells assessed as reduction in AST activity at 40 micromol/L incubated for 24 hrs; type: functional; conditions: dose 40 µmol/L
# [5] = Hepatotoxicity in MCD diet-induced C57BL/6 mouse assessed as reduction in liver index at 3 to 30 mg/kg,po administrated for 4 weeks by hematoxylin and eosin staining based microscopic analysis; type: toxicity, organism-based; conditions: in vivo, 672 h, dose 3-30 mg/kg
# Mus musculus [6] = assay: Anti-NASH activity in MCD diet-induced nonalcoholic steatohepatitis C57BL/6 mouse assessed as reduction in triglyceride level in serum at 3 to 30 mg/kg,po administrated for 28 days; type: functional, organism-based; conditions: dose 3-30 mg/kg, time 28.0 day
# Mus musculus [7] = assay: Anti-NASH activity in MCD diet-induced nonalcoholic steatohepatitis C57BL/6 mouse assessed as reduction in total cholesterol level in serum at 3 to 30 mg/kg,po administrated for 28 days; type: functional, organism-based; conditions: dose 3-30 mg/kg, time 28.0 day
# Mus musculus [8] = assay: Anti-NASH activity in MCD diet-induced nonalcoholic steatohepatitis C57BL/6 mouse assessed as increase in serum HDL level at 3 to 30 mg/kg,po administrated for 28 days; type: functional, organism-based; conditions: dose 3-30 mg/kg, time 28.0 day
# Mus musculus [9] = assay: Anti-NASH activity in MCD diet-induced nonalcoholic steatohepatitis C57BL/6 mouse assessed as decrease in serum LDL level at 3 to 30 mg/kg,po administrated for 28 days; type: functional, organism-based; conditions: dose 3-30 mg/kg, time 28.0 day
# Mus musculus [10] = assay: Anti-NASH activity in MCD diet-induced nonalcoholic steatohepatitis C57BL/6 mouse assessed as decrease in serum AST activity at 3 to 30 mg/kg,po administrated for 28 days; type: functional, organism-based; conditions: dose 3-30 mg/kg, time 28.0 day
# Mus musculus [11] = assay: Anti-NASH activity in MCD diet-induced nonalcoholic steatohepatitis C57BL/6 mouse assessed as decrease in serum ALT activity at 10 mg/kg,po administrated for 28 days; type: functional, organism-based; conditions: time 28.0 day
# Mus musculus [12] = assay: Anti-NASH activity in MCD diet-induced nonalcoholic steatohepatitis C57BL/6 mouse assessed as decrease in serum ALT activity at 30 mg/kg,po administrated for 28 days; type: functional, organism-based; conditions: time 28.0 day
# Mus musculus [13] = assay: Anti-NASH activity in MCD diet-induced nonalcoholic steatohepatitis C57BL/6 mouse assessed as increase in liver GSH level at 3 to 30 mg/kg,po administrated for 28 days; type: functional, organism-based; conditions: dose 3-30 mg/kg, time 28.0 day
# Mus musculus [14] = assay: Anti-NASH activity in MCD diet-induced nonalcoholic steatohepatitis C57BL/6 mouse assessed as increase in liver GSH level at 30 mg/kg,po administrated for 28 days; type: functional; conditions: time 28 day
# Mus musculus [15] = assay: Anti-NASH activity in MCD diet-induced nonalcoholic steatohepatitis C57BL/6 mouse assessed as decrease in serum TNF-alpha level at 3 to 30 mg/kg,po administrated for 28 days; type: functional, organism-based; conditions: dose 3-30 mg/kg, time 28.0 day
# Mus musculus [16] = assay: Anti-NASH activity in MCD diet-induced nonalcoholic steatohepatitis C57BL/6 mouse assessed as decrease in serum IL-6 level at 3 to 30 mg/kg,po administrated for 28 days; type: functional, organism-based; conditions: dose 3-30 mg/kg, time 28.0 day
# Mus musculus [17] = assay: Anti-NASH activity in MCD diet-induced nonalcoholic steatohepatitis C57BL/6 mouse assessed as decrease in serum IL-8 level at 3 to 30 mg/kg,po administrated for 28 days; type: functional, organism-based; conditions: dose 3-30 mg/kg, time 28.0 day
# Mus musculus [18] = assay: Anti-NASH activity in MCD diet-induced nonalcoholic steatohepatitis C57BL/6 mouse assessed as reduction in triglyceride level in serum at 3 mg/kg,po administrated for 28 days; type: functional, organism-based; conditions: time 28.0 day
# Mus musculus [19] = assay: Anti-NASH activity in MCD diet-induced nonalcoholic steatohepatitis C57BL/6 mouse assessed as reduction in triglyceride level in serum at 10 mg/kg,po administrated for 28 days; type: functional; conditions: time 28 day
# Mus musculus [20] = assay: Anti-NASH activity in MCD diet-induced nonalcoholic steatohepatitis C57BL/6 mouse assessed as reduction in triglyceride level in serum at 30 mg/kg,po administrated for 28 days; type: functional; conditions: time 28 day
# Mus musculus [21] = assay: Anti-NASH activity in MCD diet-induced nonalcoholic steatohepatitis C57BL/6 mouse assessed as reduction in triglyceride level in serum at 3 mg/kg,po administrated […]; type: functional
# HepG2 [22] = assay: Anti-NASH activity in free fatty acid-induced nonalcoholic steatohepatitis model in human HepG2 cells assessed as reduction in intracellular lipid accumulation at 100 micromol/L incubated for 24 hrs by Oil Red O/ Hematoxylin staining based analysis; type: functional, cell-based; conditions: dose 100.0 µmol/L
# HepG2 [23] = assay: Anti-NASH activity in free fatty acid-induced nonalcoholic steatohepatitis model in human HepG2 cells assessed as reduction in intracellular triglyceride level measured per mg of protein at 100 micromol/L incubated for 24 hrs; type: functional; conditions: dose 100 µmol/L
# HepG2 [24] = assay: Anti-NASH activity in free fatty acid-induced nonalcoholic steatohepatitis model in human HepG2 cells assessed as reduction in AST activity at 100 micromol/L incubated for 24 hrs; type: functional; conditions: dose 100 µmol/L
# [25] = Hepatotoxicity in MCD diet-induced C57BL/6 mouse assessed as reduction in liver index at 100 mg/kg,po administrated for 4 weeks by hematoxylin and eosin staining based microscopic analysis; type: toxicity, organism-based; conditions: in vivo, 672 h
# Mus musculus [26] = assay: Anti-NASH activity in MCD diet-induced nonalcoholic steatohepatitis C57BL/6 mouse assessed as reduction in triglyceride level in serum at 100 mg/kg,po administrated for 28 days; type: functional, organism-based; conditions: time 28.0 day
# Mus musculus [27] = assay: Anti-NASH activity in MCD diet-induced nonalcoholic steatohepatitis C57BL/6 mouse assessed as decrease in serum AST activity at 100 mg/kg,po administrated for 28 days; type: functional, organism-based; conditions: time 28.0 day
# Mus musculus [28] = assay: Anti-NASH activity in MCD diet-induced nonalcoholic steatohepatitis C57BL/6 mouse assessed as increase in serum HDL level at 100 mg/kg,po administrated for 28 days; type: functional, organism-based; conditions: time 28.0 day
# Mus musculus [29] = assay: Anti-NASH activity in MCD diet-induced nonalcoholic steatohepatitis C57BL/6 mouse assessed as decrease in serum LDL level at 100 mg/kg,po administrated for 28 days; type: functional, organism-based; conditions: time 28.0 day
# Mus musculus [30] = assay: Anti-NASH activity in MCD diet-induced nonalcoholic steatohepatitis C57BL/6 mouse assessed as decrease in serum ALT activity at 100 mg/kg,po administrated for 28 days; type: functional, organism-based; conditions: time 28.0 day
# Mus musculus [31] = assay: Anti-NASH activity in MCD diet-induced nonalcoholic steatohepatitis C57BL/6 mouse assessed as increase in liver GSH level at 100 mg/kg,po administrated for 28 days; type: functional, organism-based; conditions: time 28.0 day
# Mus musculus [32] = assay: Anti-NASH activity in MCD diet-induced nonalcoholic steatohepatitis C57BL/6 mouse assessed as decrease in serum TNF-alpha level at 100 mg/kg,po administrated for 28 days; type: functional, organism-based; conditions: time 28.0 day
# Mus musculus [33] = assay: Anti-NASH activity in MCD diet-induced nonalcoholic steatohepatitis C57BL/6 mouse assessed as decrease in serum IL-6 level at 100 mg/kg,po administrated for 28 days; type: functional, organism-based; conditions: time 28.0 day
smiles,measurement,setting,value
CSc1ccc(C(=O)/C=C/c2cc(C)c(OC(C)(C)C(=O)OC(C)(C)C)c(C)c2)cc1,Activity,HepG2 [1],inactive
same,Activity,HepG2 [2],Active
same,Activity,HepG2 [3],Active
Cc1cc(/C=C/C(=O)c2ccc(N(C)Cc3ccccc3)cc2)cc(C)c1OC(C)(C)C(=O)O,Activity,HepG2 [1],inactive
same,Activity,HepG2 [2],Active
same,Activity,HepG2 [3],Active
CNc1ccc(C(=O)/C=C/c2cc(C)c(OC(C)(C)C(=O)OC(C)(C)C)c(C)c2)cc1,Activity,HepG2 [1],inactive
same,Activity,HepG2 [2],Active
same,Activity,HepG2 [3],Active
same,Activity,HepG2 [4],18.65 U/g
same,Activity,[5],Non-Toxic
same,Activity,Mus musculus [6],Active
same,Activity,Mus musculus [7],Active
same,Activity,Mus musculus [8],Active
same,Activity,Mus musculus [9],Active
same,Activity,Mus musculus [10],Active
same,Activity,Mus musculus [11],Active
same,Activity,Mus musculus [12],Active
same,Activity,Mus musculus [13],Active
same,Activity,Mus musculus [14],47.8 µmol/g
same,Activity,Mus musculus [15],Active
same,Activity,Mus musculus [16],Active
same,Activity,Mus musculus [17],Active
Cc1cc(/C=C/C(=O)c2ccc(N(C)Cc3ccccc3)cc2)cc(C)c1OC(C)(C)C(=O)OC(C)(C)C,Activity,HepG2 [1],inactive
same,Activity,HepG2 [2],Active
same,Activity,HepG2 [3],Active
COc1ccc(C(=O)/C=C/c2cc(C)c(OC(C)(C)C(=O)OC(C)(C)C)c(C)c2)cc1,Activity,HepG2 [1],inactive
same,Activity,HepG2 [2],Active
same,Activity,HepG2 [3],Active
COc1ccc(C(=O)/C=C/c2cc(C)c(OC(C)(C)C(=O)O)c(C)c2)cc1,Activity,HepG2 [1],Active
same,Activity,HepG2 [2],Active
same,Activity,HepG2 [3],Active
C[Se]c1ccc(C(=O)/C=C/c2cc(C)c(OC(C)(C)C(=O)O)c(C)c2)cc1,Activity,HepG2 [1],Active
same,Activity,HepG2 [2],Active
same,Activity,HepG2 [3],Active
CNc1ccc(C(=O)/C=C/c2cc(C)c(OC(C)(C)C(=O)O)c(C)c2)cc1,Activity,HepG2 [1],inactive
same,Activity,HepG2 [2],inactive
same,Activity,HepG2 [3],inactive
Cc1cc(/C=C/C(=O)c2ccc(N(C)C)cc2)cc(C)c1OC(C)(C)C(=O)O,Activity,HepG2 [1],inactive
same,Activity,HepG2 [2],Active
same,Activity,HepG2 [3],Active
C[Se]c1ccc(C(=O)/C=C/c2cc(C)c(OC(C)(C)C(=O)OC(C)(C)C)c(C)c2)cc1,Activity,HepG2 [1],inactive
same,Activity,HepG2 [2],Active
same,Activity,HepG2 [3],Active
CSc1ccc(C(=O)/C=C/c2cc(C)c(OC(C)(C)C(=O)O)c(C)c2)cc1 [ELAFIBRANOR],Activity,HepG2 [1],Active
same,Activity,HepG2 [2],Active
same,Activity,HepG2 [3],Active
same,Activity,HepG2 [4],18.31 U/g
same,Activity,[5],Toxic
same,Activity,Mus musculus [18],inactive
same,Activity,Mus musculus [19],0.69 mmol/L
same,Activity,Mus musculus [20],0.53 mmol/L
same,Activity,Mus musculus [21],0.64 mmol/L
same,Activity,Mus musculus [7],Active
same,Activity,Mus musculus [8],Active
same,Activity,Mus musculus [9],Active
same,Activity,Mus musculus [10],Active
same,Activity,Mus musculus [11],Active
same,Activity,Mus musculus [12],Active
same,Activity,Mus musculus [13],Active
same,Activity,Mus musculus [15],Active
same,Activity,Mus musculus [16],Active
same,Activity,Mus musculus [17],Active
Cc1cc(/C=C/C(=O)c2ccc(N(C)C)cc2)cc(C)c1OC(C)(C)C(=O)OC(C)(C)C,Activity,HepG2 [1],inactive
same,Activity,HepG2 [2],inactive
same,Activity,HepG2 [3],inactive
CC(C)OC(=O)C(C)(C)Oc1ccc(C(=O)c2ccc(Cl)cc2)cc1 [FENOFIBRATE],Activity,HepG2 [22],Active
same,Activity,HepG2 [23],0.15 mmol
same,Activity,HepG2 [24],19.78 U/g
same,Activity,[25],Toxic
same,Activity,Mus musculus [26],Active
same,Activity,Mus musculus [27],Active
same,Activity,Mus musculus [28],Active
same,Activity,Mus musculus [29],Active
same,Activity,Mus musculus [30],Active
same,Activity,Mus musculus [31],Active
same,Activity,Mus musculus [32],Active
same,Activity,Mus musculus [33],Active
